Data on 26 substances can be found in the OligoGym collection.

HELM strings list units from the 5' end as sugar, base in round brackets, then linkage (d deoxyribose, r ribose, m 2'-O-methyl, p phosphodiester). Strings are as the collection lists them; they lack the last nucleoside at the 3' end of the tested compound. [moe] = 2'-O-(2-methoxyethyl) (MOE); [sp] = phosphorothioate linkage; [m5C] = 5-methylcytosine

This data set deals with ATXN2. The data set is described as follows: mouse, dose not given. The note with it: ASO.
Take “RNA1{[moe](T)[sp].[moe](A)p.[moe](T)p.[moe]([m5C])p.[moe](A)p.d(T)[sp].d([m5C])[sp].d(A)[sp].d(T)[sp].d(T)[sp].d(T)[sp].d(T)[sp].d([m5C])[sp].d([m5C])[sp].d(A)[sp].[moe](G)p.[moe](G)p.[moe](G)[sp].[moe]([m5C])}$$$$ (last 3' nucleoside missing)”: the 3 h FOB score was found to be 4.75 score 0-7.
For “RNA1{[moe](T)[sp].[moe](A)p.[moe]([m5C])p.[moe](A)p.[moe](G)p.d(G)[sp].d(T)[sp].d(G)[sp].d(A)[sp].d(G)[sp].d(A)[sp].d(T)[sp].d(A)[sp].d(T)[sp].d(A)[sp].[moe](T)p.[moe](A)p.[moe](G)[sp].[moe](G)}$$$$ (last 3' nucleoside missing)” the value was 4 score 0-7; for “RNA1{[moe](T)[sp].[moe](A)p.[moe]([m5C])p.[moe](A)p.[moe]([m5C])p.d(A)[sp].d(G)[sp].d(T)[sp].d(T)[sp].d(T)[sp].d([m5C])[sp].d(A)[sp].d([m5C])[sp].d(T)[sp].d(A)[sp].[moe](G)p.[moe](G)p.[moe](T)[sp].[moe](T)}$$$$ (last 3' nucleoside missing)”, 1 score 0-7; for “RNA1{[moe](T)[sp].[moe](A)p.[moe]([m5C])p.[moe](G)p.[moe]([m5C])p.d(G)[sp].d(G)[sp].d(T)[sp].d(G)[sp].d(A)[sp].d(A)[sp].d(T)[sp].d(T)[sp].d([m5C])[sp].d(T)[sp].[moe](G)p.[moe](T)p.[moe]([m5C])[sp].[moe](T)}$$$$ (last 3' nucleoside missing)”, 0 score 0-7.
In the case of “RNA1{[moe](T)[sp].[moe](A)p.[moe]([m5C])p.[moe](T)p.[moe](G)[sp].d(T)[sp].d(T)[sp].d(T)[sp].d([m5C])[sp].d(G)[sp].d(A)[sp].d([m5C])[sp].d([m5C])[sp].[moe](T)p.[moe]([m5C])p.[moe](T)[sp].[moe](G)}$$$$ (last 3' nucleoside missing)” it was 4.75 score 0-7; in that of “RNA1{[moe](T)[sp].[moe](A)p.[moe]([m5C])p.[moe](T)p.[moe](G)p.d(T)[sp].d(T)[sp].d(T)[sp].d([m5C])[sp].d(G)[sp].d(A)[sp].d([m5C])[sp].d([m5C])[sp].d(T)[sp].d([m5C])[sp].[moe](T)p.[moe](G)p.[moe](A)[sp].[moe](A)}$$$$ (last 3' nucleoside missing)”, 3 score 0-7.
In the case of “RNA1{[moe](T)[sp].[moe](A)p.[moe]([m5C])p.[moe](T)p.[moe](T)[sp].d(T)[sp].d(T)[sp].d([m5C])[sp].d(T)[sp].d([m5C])[sp].d(A)[sp].d(T)[sp].d(G)[sp].[moe](T)p.[moe](G)p.[moe]([m5C])[sp].[moe](G)}$$$$ (last 3' nucleoside missing)” it was 4.75 score 0-7; in that of “RNA1{[moe](T)[sp].[moe](A)p.[moe]([m5C])p.[moe](T)p.[moe](T)[sp].d([m5C])[sp].d(A)[sp].d([m5C])[sp].d(A)[sp].d(T)[sp].d(T)[sp].d(T)[sp].d(G)[sp].[moe](G)p.[moe](A)p.[moe](G)[sp].[moe]([m5C])}$$$$ (last 3' nucleoside missing)”, 3.25 score 0-7.
Substance “RNA1{[moe](T)[sp].[moe](A)p.[moe]([m5C])p.[moe](T)p.[moe](T)p.[moe](T)p.d(T)[sp].d([m5C])[sp].d(T)[sp].d([m5C])[sp].d(A)[sp].d(T)[sp].d(G)[sp].d(T)[sp].d(G)[sp].d([m5C])[sp].[moe](G)p.[moe](G)[sp].[moe]([m5C])}$$$$ (last 3' nucleoside missing)” yielded a 3 h FOB score of 5.5 score 0-7.
For “RNA1{[moe](T)[sp].[moe](A)p.[moe]([m5C])p.[moe](T)p.[moe](T)p.d(T)[sp].d(T)[sp].d([m5C])[sp].d(T)[sp].d([m5C])[sp].d(A)[sp].d(T)[sp].d(G)[sp].d(T)[sp].d(G)[sp].[moe]([m5C])p.[moe](G)p.[moe](G)[sp].[moe]([m5C])}$$$$ (last 3' nucleoside missing)” the value was 3.75 score 0-7; for “RNA1{[moe](T)[sp].[moe](A)p.[moe]([m5C])p.[moe](T)p.[moe](T)p.d([m5C])[sp].d(A)[sp].d([m5C])[sp].d(A)[sp].d(T)[sp].d(T)[sp].d(T)[sp].d(G)[sp].d(G)[sp].d(A)[sp].[moe](G)p.[moe]([m5C])p.[moe]([m5C])[sp].[moe]([m5C])}$$$$ (last 3' nucleoside missing)”, 5.25 score 0-7; for “RNA1{[moe](T)[sp].[moe](A)p.[moe]([m5C])p.[moe](T)p.[moe]([m5C])p.d(T)[sp].d([m5C])[sp].d([m5C])[sp].d(A)[sp].d(T)[sp].d(T)[sp].d(A)[sp].d(T)[sp].d(T)[sp].d(T)[sp].[moe]([m5C])p.[moe](T)p.[moe](T)[sp].[moe]([m5C])}$$$$ (last 3' nucleoside missing)”, 2.25 score 0-7.
“RNA1{[moe](T)[sp].[moe](A)p.[moe]([m5C])p.[moe](T)p.d(T)[sp].d(T)[sp].d(T)[sp].d([m5C])[sp].d(T)[sp].d([m5C])[sp].d(A)[sp].d(T)[sp].d(G)[sp].d(T)[sp].[moe](G)p.[moe]([m5C])p.[moe](G)p.[moe](G)[sp].[moe]([m5C])}$$$$ (last 3' nucleoside missing)” had a 3 h FOB score of 1.75 score 0-7.
As to “RNA1{[moe](T)[sp].[moe](G)[sp].[moe]([m5C])[sp].[moe](A)[sp].[moe](T)[sp].d(A)[sp].d(G)[sp].d(A)[sp].d(T)[sp].d(T)[sp].d([m5C])[sp].d([m5C])[sp].d(A)[sp].d(T)[sp].d([m5C])[sp].[moe](A)[sp].[moe](A)[sp].[moe](A)[sp].[moe](A)}$$$$ (last 3' nucleoside missing)”, the 3 h FOB score came to 7 score 0-7.
For “RNA1{[moe](T)[sp].[moe](G)p.[moe](A)p.[moe](G)p.[moe](T)p.d(T)[sp].d([m5C])[sp].d(A)[sp].d([m5C])[sp].d([m5C])[sp].d(T)[sp].d(G)[sp].d([m5C])[sp].d(A)[sp].d(T)[sp].[moe]([m5C])p.[moe]([m5C])p.[moe]([m5C])[sp].[moe](A)}$$$$ (last 3' nucleoside missing)” the value was 5.75 score 0-7.
In the case of “RNA1{[moe](T)[sp].[moe](G)p.[moe](A)p.[moe](T)p.[moe]([m5C])p.d(T)[sp].d(T)[sp].d(G)[sp].d(T)[sp].d(G)[sp].d(T)[sp].d(A)[sp].d(T)[sp].d(A)[sp].d(T)[sp].[moe](A)p.[moe](T)p.[moe](T)[sp].[moe](A)}$$$$ (last 3' nucleoside missing)” it was 6 score 0-7.
Take “RNA1{[moe](T)[sp].[moe](G)p.[moe](G)p.[moe](A)p.[moe](T)[sp].d(T)[sp].d([m5C])[sp].d(T)[sp].d(G)[sp].d(T)[sp].d(A)[sp].d([m5C])[sp].d(T)[sp].[moe](T)p.[moe](T)p.[moe](T)[sp].[moe]([m5C])}$$$$ (last 3' nucleoside missing)”: the 3 h FOB score was 5.25 score 0-7.
Substance “RNA1{[moe](T)[sp].[moe](G)p.[moe](G)p.[moe](A)p.[moe](T)p.[moe](T)p.d([m5C])[sp].d(T)[sp].d(G)[sp].d(T)[sp].d(A)[sp].d([m5C])[sp].d(T)[sp].d(T)[sp].d(T)[sp].d(T)[sp].[moe]([m5C])p.[moe](T)[sp].[moe]([m5C])}$$$$ (last 3' nucleoside missing)” returned a 3 h FOB score of 1 score 0-7.
For “RNA1{[moe](T)[sp].[moe](G)p.[moe](G)p.[moe](A)p.[moe](T)p.d(T)[sp].d([m5C])[sp].d(T)[sp].d(G)[sp].d(T)[sp].d(A)[sp].d([m5C])[sp].d(T)[sp].d(T)[sp].d(T)[sp].[moe](T)p.[moe]([m5C])p.[moe](T)[sp].[moe]([m5C])}$$$$ (last 3' nucleoside missing)” the value was 5.25 score 0-7; for “RNA1{[moe](T)[sp].[moe](G)p.[moe](G)p.[moe](A)p.d(T)[sp].d(T)[sp].d([m5C])[sp].d(T)[sp].d(G)[sp].d(T)[sp].d(A)[sp].d([m5C])[sp].d(T)[sp].d(T)[sp].[moe](T)p.[moe](T)p.[moe]([m5C])p.[moe](T)[sp].[moe]([m5C])}$$$$ (last 3' nucleoside missing)”, 3.5 score 0-7.
For “RNA1{[moe](T)[sp].[moe](G)p.[moe](G)p.[moe](T)p.[moe](G)[sp].d(G)[sp].d(T)[sp].d(G)[sp].d(T)[sp].d(G)[sp].d([m5C])[sp].d(G)[sp].d([m5C])[sp].[moe](A)p.[moe](T)p.[moe](G)[sp].[moe](T)}$$$$ (last 3' nucleoside missing)” the value was 6.25 score 0-7.
In the case of “RNA1{[moe](T)[sp].[moe](G)p.[moe](G)p.[moe](T)p.[moe](G)p.[moe](G)p.d(T)[sp].d(G)[sp].d(T)[sp].d(G)[sp].d([m5C])[sp].d(G)[sp].d([m5C])[sp].d(A)[sp].d(T)[sp].d(G)[sp].[moe](T)p.[moe](A)[sp].[moe](G)}$$$$ (last 3' nucleoside missing)” it was 7 score 0-7.
“RNA1{[moe](T)[sp].[moe](G)p.[moe](G)p.[moe](T)p.[moe](G)p.d(G)[sp].d(T)[sp].d(G)[sp].d(T)[sp].d(G)[sp].d([m5C])[sp].d(G)[sp].d([m5C])[sp].d(A)[sp].d(T)[sp].[moe](G)p.[moe](T)p.[moe](A)[sp].[moe](G)}$$$$ (last 3' nucleoside missing)” showed a 3 h FOB score of 6.5 score 0-7.
For “RNA1{[moe](T)[sp].[moe](G)p.[moe](G)p.[moe](T)p.[moe](T)p.d([m5C])[sp].d([m5C])[sp].d(T)[sp].d(T)[sp].d(A)[sp].d([m5C])[sp].d(A)[sp].d(A)[sp].d(T)[sp].d(T)[sp].[moe](A)p.[moe](T)p.[moe]([m5C])[sp].[moe](T)}$$$$ (last 3' nucleoside missing)” the value was 0 score 0-7; for “RNA1{[moe](T)[sp].[moe](G)p.[moe](G)p.[moe](T)p.d(G)[sp].d(G)[sp].d(T)[sp].d(G)[sp].d(T)[sp].d(G)[sp].d([m5C])[sp].d(G)[sp].d([m5C])[sp].d(A)[sp].[moe](T)p.[moe](G)p.[moe](T)p.[moe](A)[sp].[moe](G)}$$$$ (last 3' nucleoside missing)”, 6.75 score 0-7.
“RNA1{[moe](T)[sp].[moe](G)p.[moe](T)p.[moe](A)[sp].[moe]([m5C])[sp].d(T)[sp].d(T)[sp].d([m5C])[sp].d(A)[sp].d([m5C])[sp].d(A)[sp].d(T)[sp].d(T)[sp].d(T)[sp].d(G)[sp].[moe](G)p.[moe](A)p.[moe](G)[sp].[moe]([m5C])}$$$$ (last 3' nucleoside missing)”: the 3 h FOB score was 3 score 0-7.
